Measured values from US9789066B2, “Process for making tablet using radiofrequency and lossy coated particles” (JOHNSON & JOHNSON CONSUMER INC., priority 2014, dated 2017).

Assay: Dielectric measurement (e′, e″, Q value) by Slotted Line Method at 27 MHz
Assay type: physicochemical
Conditions: raw material
Text: The property of permittivity is the measure of the resistance to forming an electric field. For purposes of comparing materials in air, it is often convenient to describe the permittivity of material in air where the permittivity is more specifically called “relative permittivity” or ? r. This is a complex number represented by the following equation: ? r=e'-je'' where e' (the real portion of the complex number) is the dielectric constant (energy storage) and e'' (the imaginary portion of the complex number) is the dielectric loss or dissipation factor (energy dissipated as heat). The ratio of dielectric loss (e'') over the dielectric constant (e') is called the loss tangent (tan δ) or power factor. […] The Q value is affected by physical and chemical properties such as density (porosity/particle size), moisture (conductivity), temperature, and molecular polarizability. The measurements obtained by this method can eliminate the need to measure and evaluate these properties independently. […] The Q values were measured using a HP […] Slotted Line as sample holder (carriage removed) connected to Agilent […] to ports A and B (transmission mode). […] This process is referred to as the “Slotted Line Method.” Unless otherwise stated, the Slotted line method was used for the calculation of e', e'', and Q value herein with the frequency range set to 26-28 MHz (31 points resolution) and values of e' and e'' were recorded from the 27 MHz data point.

SMILES: OC[C@@H](O)[C@@H](O[C@H]1O[C@H](CO)[C@@H](O)[C@H](O)[C@H]1O)[C@H](O)[C@@H](O)CO [Maltitol (SweetPearl DC300), Maltitol]
- Loss Tangent: 0.0022
- e′: 1.6214
- e″: 0.0035
